Measurements: patent publication US12134610B2, “Somatostatin subtype-2 receptor (SST2R) targeted therapeutics and uses thereof” (priority 2022, dated 2024)

Assays:
Format in all cases: cell-based
[1] = target: T1, human somatostatin receptor subtype 2 (Homo sapiens, UniProt P30874); experiment: Functional cAMP assay for SSTR2 agonists (HTRF) in CHO-K1 cells; conditions: CHO-K1 cells stably expressing human SST2, 20 min; read-out: hSST2 cAMP Avg EC50
T1 construct: expressed in transfected cells
How it was run: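 CHO-K1 cells stably expressing receptor, plated 4 days before assay, treated 20 min at 37° C. with compound (typically 0-10,000 nM final) plus IBMX and 1.6 μM NKH477 to raise cAMP. HTRF read, 665/620 nm ratio; cAMP from standard curve, EC50 fitted.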

SST2 = target: T2, SST2 (Homo sapiens, UniProt P30874); experiment: PathHunter CHO-K1 SST2 internalization assay; conditions: PathHunter CHO-K1 SST2, 90 min; read-out: Internalization EC50
T2 construct: host or cells: PathHunter CHO-K1 SST2 cells
T2 sequence (P30874 whole entry): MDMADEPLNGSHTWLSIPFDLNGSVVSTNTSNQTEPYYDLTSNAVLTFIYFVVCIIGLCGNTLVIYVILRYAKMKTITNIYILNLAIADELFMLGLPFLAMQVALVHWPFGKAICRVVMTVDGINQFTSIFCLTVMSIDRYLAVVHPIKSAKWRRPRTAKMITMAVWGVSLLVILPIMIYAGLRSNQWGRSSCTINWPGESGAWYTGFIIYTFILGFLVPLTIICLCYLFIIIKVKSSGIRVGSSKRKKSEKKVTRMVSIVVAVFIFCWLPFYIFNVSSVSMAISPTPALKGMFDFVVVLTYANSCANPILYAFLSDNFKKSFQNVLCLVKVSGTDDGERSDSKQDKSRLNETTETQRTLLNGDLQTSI
Experimental: SMDCs of the present invention were assessed in vitro using the human PathHunter CHO-K1 SST2 β-arrestin2 and PathHunter CHO-K1 SST2 Internalization Assays from DiscoverX. The CHO-K cells were seeded in 20 μLs of cell culture medium in a white-walled 384 well tissue culture-compatible plate at a density of 2500 cells/well. After a 48-hour incubation, cells were treated with 5 μLs of a 1:3 serially diluted SST2 SMDC prepared at 5× concentration with a final top compound concentration of 10 uM for 90 min at 37 C and in 5% CO2. 11 dilutions were tested as well as one treatment that was compound free. After incubation, the media containing treatments were discarded and 20 μL of a working solution of Beta-Glo from Promega Beta-Glo Assay System was added to each well. The plate was then incubated for 60 min at room temperature in the dark. Luminescence was measured using a Tecan plate reader. IC50 curves were generated using the nonlinear regression analysis (four-parameters) with GraphPad Prism 9. Results were the average of duplicates and are corrected for background.

[2] = tested on: NCI-H524 (ATCC) human small cell lung cancer cells; conditions: 2 h
Experimental: SMDCs of the present invention were assessed in an in vitro assay evaluating the inhibition of cell proliferation. NCI-H524 (ATCC) human small cell lung cancer cells were plated in 96-well V-bottom plates (Costar) at a concentration of 5,000 cells/well. 24 h later, the cells were treated for 2 h with a SMDC. SMDC starting dose was 1 uM and two-fold serial dilutions were done for a total of 11 points. After 2 h of treatment, cells were spun down, and the drug-containing media was removed, and fresh complete media was added and used to resuspend the cells, which were spun again. After removal of the media, the cells were resuspended in complete medium and incubated for an additional 70 h. Cell proliferation was assessed using the CellTiter Glo Assay according to the standard protocol (Promega). Luminescence was measured using a TECAN plate reader. Percent proliferation inhibition was calculated using the following formula: % inhibition=(Luminescence Control−Luminescence Treatment)/Luminescence Control*100. IC50 curves were generated using the nonlinear regression analysis (four-parameter) with GraphPad Prism 9.

T1 sequence (P30874 whole entry): as above

SMILES | EC50 [1] | EC50 (SST2) | EC50 [2]
CC[C@H](C)[C@@H]([C@@H](CC(=O)N1CCC[C@H]1[C@H](OC)[C@@H](C)C(=O)N[C@H](C)[C@@H](O)c1ccccc1)OC)N(C)C(=O)[C@@H](NC(=O)[C@H](C(C)C)N(C)C(=O)OCc1ccc(NC(=O)[C@H](C)NC(=O)[C@@H](NC(=O)[C@H](CCC(=O)O)NC(=O)CCOCCC(=O)NCCNc2ncc(-c3cc(C)cc(F)c3)c(N3CCC(N)CC3)c2-c2nc3ccc(Cl)cc3[nH]2)C(C)C)c(O[C@@H]2O[C@H](C(=O)O)[C@@H](O)[C@H](O)[C@H]2O)c1)C(C)C [Compound 145] | 0.25 nM | 7.9 nM | 150 nM
CC[C@H](C)[C@@H]([C@@H](CC(=O)N1CCC[C@H]1[C@H](OC)[C@@H](C)C(=O)N[C@H](C)[C@@H](O)c1ccccc1)OC)N(C)C(=O)[C@@H](NC(=O)[C@H](C(C)C)N(C)C(=O)OCc1ccc(NC(=O)[C@H](C)NC(=O)[C@@H](NC(=O)CCCC(=O)N(C)CC(=O)NCCNc2ncc(-c3cc(C)cc(F)c3)c(N3CCC(N)CC3)c2-c2nc3ccc(Cl)cc3[nH]2)C(C)C)c(O[C@@H]2O[C@H](C(=O)O)[C@@H](O)[C@H](O)[C@H]2O)c1)C(C)C [Compound 140] | 0.33 nM | 1.8 nM | 5.4 nM
CCC(C)C(C(CC(=O)N1CCCC1C(OC)C(C)C(=O)NC(C)C(O)c1ccccc1)OC)N(C)C(=O)C(NC(=O)C(C(C)C)N(C)C(=O)OCc1ccc(NC(=O)[C@H](CCCNC(N)=O)NC(=O)[C@@H](NC(=O)CCOCCOCCC(=O)NCCNc2ncc(-c3cc(C)cc(F)c3)c(N3CCC(N)CC3)c2-c2nc3ccc(Cl)cc3[nH]2)C(C)C)cc1)C(C)C (stereo in doubt) [Compound 24] | 0.2 nM | 12 nM | 13.4 nM
COc1cc2cc(c1Cl)N(C)C(=O)CC(OC(=O)[C@@H](C)N(C)C(=O)CCSC1CC(=O)N(CC3CCC(C(=O)NCCNc4ncc(-c5cc(C)cc(F)c5)c(N5CCC(N)CC5)c4-c4nc5ccc(Cl)cc5[nH]4)CC3)C1=O)[C@]1(C)OC1[C@@H](C)C1C[C@@](O)(NC(=O)O1)[C@H](OC)/C=C/C=C(\C)C2 (stereo partly drawn) [Compound 6] | 0.22 nM | 5.3 nM | 11.7 nM
CC[C@H](C)[C@@H]([C@@H](CC(=O)N1CCC[C@H]1[C@H](OC)[C@@H](C)C(=O)N[C@H](C)[C@@H](O)c1ccccc1)OC)N(C)C(=O)[C@@H](NC(=O)[C@H](C(C)C)N(C)C(=O)OCc1ccc(NC(=O)[C@H](CCCNC(N)=O)NC(=O)[C@@H](NC(=O)CCOCCOCCOCCOCCNCCNc2ncc(-c3cc(C)cc(F)c3)c(N3CCC(N)CC3)c2-c2nc3ccc(Cl)cc3[nH]2)C(C)C)cc1)C(C)C [Compound 92] | 0.56 nM | 27 nM | 110 nM
CC[C@H](C)[C@@H]([C@@H](CC(=O)N1CCC[C@H]1[C@H](OC)[C@@H](C)C(=O)N[C@H](C)[C@@H](O)c1ccccc1)OC)N(C)C(=O)[C@@H](NC(=O)[C@H](C(C)C)N(C)C(=O)OCc1ccc(NC(=O)[C@H](C)NC(=O)[C@@H](NC(=O)[C@H](CCC(N)=O)NC(=O)CCOCCC(=O)NCCNc2ncc(-c3cc(C)cc(F)c3)c(N3CCC(N)CC3)c2-c2nc3ccc(Cl)cc3[nH]2)C(C)C)cc1C(=O)NCCN)C(C)C [Compound 118] | 0.068 nM | 3.8 nM | 0.65 nM
CC[C@H](C)[C@@H]([C@@H](CC(=O)N1CCC[C@H]1[C@H](OC)[C@@H](C)C(=O)N[C@H](C)[C@@H](O)c1ccccc1)OC)N(C)C(=O)[C@@H](NC(=O)[C@H](C(C)C)N(C)C(=O)OCc1ccc(NC(=O)[C@H](C)NC(=O)[C@@H](NC(=O)CCOCCC(=O)N(C)CCNc2ncc(-c3cc(C)cc(F)c3)c(N3CCC(N)CC3)c2-c2nc3ccc(Cl)cc3[nH]2)C(C)C)c(O[C@@H]2O[C@H](C(=O)O)[C@@H](O)[C@H](O)[C@H]2O)c1)C(C)C [Compound 153] | 0.51 nM | 14 nM | 98 nM
